The target in this assay is DCAF1 (DDB1-Cul4 associated factor 1), WDR domain (Homo sapiens, UniProt Q9Y4B6). Briefly: […] Å cocrystal structure. The assay is classed as binding.

Kd data for one molecule are collected here from PMC10337664 (Journal of Chemical Information and Modeling, 2023).

Sequence of DCAF1 (DDB1-Cul4 associated factor 1), WDR domain (Q9Y4B6 1038-1400): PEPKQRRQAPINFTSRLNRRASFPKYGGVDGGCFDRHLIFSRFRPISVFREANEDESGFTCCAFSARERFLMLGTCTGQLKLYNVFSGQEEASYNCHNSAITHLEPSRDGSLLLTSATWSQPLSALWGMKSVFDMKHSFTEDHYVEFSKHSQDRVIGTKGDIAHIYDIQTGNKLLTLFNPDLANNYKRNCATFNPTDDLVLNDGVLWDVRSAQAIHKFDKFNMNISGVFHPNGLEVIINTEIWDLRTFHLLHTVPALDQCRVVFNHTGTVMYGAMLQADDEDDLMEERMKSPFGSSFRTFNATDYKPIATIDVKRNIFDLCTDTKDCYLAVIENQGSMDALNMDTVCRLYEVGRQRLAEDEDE

As to `Fc1cccc(N2CCCC(Nc3cc(N4CCOCC4)ncn3)C2)c1` (stereo not shown) [CYCA-117-70], the Kd (usually the constant that tells how readily two partners part at equilibrium) is around 70 µM.
